Reference: patent US20080161306A1, “Pyrrole Derivatives as Dna Gyrase and Topoisomerase Inhibitors” (priority 2005, published 2008)
In brackets after ≈: the same amount, converted by molar mass. Like-named read-outs stand apart in the source and are kept apart here.

Experiments:
Type in all cases: cell-based
HIN446 = experiment: Bacterial susceptibility testing in liquid media (MIC), HIN446; settings: strain HIN446; lowest concentration reducing growth by 80% or more; 37 degrees C., 24 hrs
Method: (§1) Compounds were tested for antimicrobial activity by susceptibility testing in liquid media. Compounds were dissolved in dimethylsulfoxide and tested in 10 doubling dilutions in the susceptibility assays. The organisms used in the assay were grown overnight on suitable agar media and then suspended in a liquid medium appropriate for the growth of the organism. The suspension was a 0.5 McFarland and a further 1 in 10 dilution was made into the same liquid medium to prepare the final organism suspension in 100 μL. Plates were incubated under appropriate conditions at 37 degrees C. for 24 hrs prior to reading. The Minimum Inhibitory Concentration was determined as the lowest drug concentration able to reduce growth by 80% or more.

SAU516 = experiment: Bacterial susceptibility testing in liquid media (MIC), SAU516; settings: strain SAU516; lowest concentration reducing growth by 80% or more; 37 degrees C., 24 hrs
Method: as §1

Streptococcus pneumoniae = experiment: Bacterial susceptibility testing in liquid media (MIC), Streptococcus pneumoniae; settings: lowest concentration reducing growth by 80% or more, 37 degrees C., 24 hrs; for MIC: Streptococcus pneumoniae
Method: as §1

[1] = strain SPN548, read-out: MIC SPN548

Compound | MIC (HIN446) | MIC (SAU516) | MIC (Streptococcus pneumoniae; read-out: MIC against Streptococcus pneumoniae) | MIC (Streptococcus pneumoniae; [1]) | MIC HIN446 (HIN446) | MIC SAU516 (SAU516) | MIC SPN548 (Streptococcus pneumoniae; strain SPN548)
Cc1[nH]c(C(=O)NC2CC=C(c3cccc(C(=O)O)c3)CC2)c(Cl)c1Cl (stereo not shown) [Example 16, 5-(4-{[(3,4-Dichloro-5-methyl-1H-pyrrol-2-yl)carbonyl]amino}cyclohex-1-en-1-yl)benzoic acid] | 4 µg/mL (≈ 10.2 µM) | 2 µg/mL (≈ 5.09 µM) | 1 µg/mL (≈ 2.54 µM) | 1 µg/mL (≈ 2.54 µM) | – | – | –
CO[C@@H]1C=C(c2cccc(C(=O)O)c2)CC[C@@H]1NC(=O)c1[nH]c(C)c(Cl)c1Cl (relative stereo) [Example 11, 3-((3,4-Cis)-4-{[(3,4-Dichloro-5-methyl-1H-pyrrol-2-yl)carbonyl]amino}-3-methoxycyclohex-1-en-1-yl)benzoic acid] | – | – | – | – | 2 µg/mL (≈ 4.72 µM) | 0.5 µg/mL (≈ 1.18 µM) | 0.13 µg/mL (≈ 0.307 µM)
Cc1[nH]c(C(=O)N[C@H]2CC[C@H](c3cccc(C(=O)O)c3)CC2)c(Cl)c1Cl [Example 5, trans-3-(4-{[(3,4-Dichloro-5-methyl-1H-pyrrol-2-yl)carbonyl]amino}cyclohexyl)benzoic acid] | 16 µg/mL (≈ 40.5 µM) | 4 µg/mL (≈ 10.1 µM) | – | 4 µg/mL (≈ 10.1 µM) | – | – | –
